In paper PMC7617869, “Molecular glues that inhibit deubiquitylase activity and inflammatory signaling” (Nature Structural & Molecular Biology, 2025):
pIC50: −log10 of the molar value. Several values for one entry are separate records, joined by “and”; a condition that tells them apart may be missing. Equal values may be shown once.

How the values were obtained:
[1] = biological target: T1, BRCC36–Abraxas 2 complex (Homo sapiens, UniProt P46736+Q15018); test: BRCC36–Abraxas 2 IQF DUB activity assay; format: biochemical; settings: for Normalised V0: Fig. 1g, HsBRCC36-Abraxas2
T1 construct: made in house; host or cells: Spodoptera frugiperda (Sf9) insect cells, MultiBac
Protocol: (§1) IQF assays were performed in DUB reaction buffer containing 50 mM HEPES–NaOH pH 7.0, 100 mM NaCl, 0.1 mg ml^−1 BSA, 1 mM DTT and 0.03% v/v Brij-35. […] The final concentration of BRISC WT, all BRISC mutants, HsBRISCΔLoop, MmBRISC and DrBRISCΔNΔC was 1 nM. Other enzymes were tested at the following concentrations: 5 nM ARISC (FL), 10 nM CfBRISCΔNΔC, 250 nM AMSH* (ref. [43]), 500 nM USP2 and 1 μM trypsin (Sigma, 9002-07-7). For Michaelis–Menten experiments, 1 nM BRISC with 0–1 μM IQF K63-linked diubiquitin substrate was used. Michaelis–Menten analyses and Lineweaver–Burk plots were calculated using GraphPad Prism (version 9.0).
(§2) To assess enzymatic activity, BRISC complexes were diluted to concentrations between 1 nM and 50 nM. […] Then, 20-μl enzyme reactions were carried out in 384-well black flat-bottom low-flange plates (Corning, 35373). DUB activity was measured using IQF K63-linked diubiquitin (LifeSensors, DU6303) at 50 nM. Cleaved diubiquitin was monitored by measuring fluorescence intensity (excitation, 544 nm; emission, 575 nm; dichroic mirror, 560 nm). Fluorescence intensity was measured every minute for 30 min at 30 °C. Fluorescence intensity units were plotted against time to generate a linear reaction progress curve, where the initial velocity (V0) corresponds to the gradient of the curve (typically achieved within 15 min). IC50 values were calculated using the GraphPad Prism (version 9.0) built-in dose–response equation for inhibitor concentration versus response (variable slope).

[2] = biological target: HsBRISCΔLoop (Δ184–208) (Homo sapiens, UniProt P46736+Q15018+Q9NXR7); test: HsBRISCΔLoop IQF DUB activity assay; format: biochemical
Protocol: as §1, §2

[3] = biological target: BRISC BRCC36 W130A (Homo sapiens, UniProt P46736+Q15018+Q9NXR7, W130A); test: BRISC mutant IQF assay: BRCC36 W130A; format: biochemical
Protocol: as §1, §2

[4] = biological target: BRISC BRCC36 R167A (Homo sapiens, UniProt P46736+Q15018+Q9NXR7, R167A); test: BRISC mutant IQF assay: BRCC36 R167A; format: biochemical
Protocol: as §1, §2

[5] = biological target: BRISC BRCC36 L169R (Homo sapiens, UniProt P46736+Q15018+Q9NXR7, L169R); test: BRISC mutant IQF assay: BRCC36 L169R; format: biochemical
Protocol: as §1, §2

[6] = biological target: BRISC BRCC36 L169A (Homo sapiens, UniProt P46736+Q15018+Q9NXR7, L169A); test: BRISC mutant IQF assay: BRCC36 L169A; format: biochemical
Protocol: as §1, §2

[7] = biological target: BRISC Abraxas2 I133W (Homo sapiens, UniProt P46736+Q15018+Q9NXR7, I133W); test: BRISC mutant IQF assay: Abraxas2 I133W; format: biochemical
Protocol: as §1
(§3) To assess enzymatic activity, BRISC complexes were diluted to concentrations between 1 nM and 50 nM. […] DUB activity was measured using IQF K63-linked diubiquitin (LifeSensors, DU6303) at 50 nM. Cleaved diubiquitin was monitored by measuring fluorescence intensity (excitation, 544 nm; emission, 575 nm; dichroic mirror, 560 nm). Fluorescence intensity was measured every minute for 30 min at 30 °C. Fluorescence intensity units were plotted against time to generate a linear reaction progress curve, where the initial velocity (V0) corresponds to the gradient of the curve (typically achieved within 15 min). IC50 values were calculated using the GraphPad Prism (version 9.0) built-in dose–response equation for inhibitor concentration versus response (variable slope).

[8] = biological target: BRISC BRCC45 R137A+F140A (Homo sapiens, UniProt P46736+Q15018+Q9NXR7, F140A/R137A); test: BRISC mutant IQF assay: BRCC45 R137A+F140A; format: biochemical
Protocol: as §1, §3

[9] = biological target: HsBRISCΔLoop (Homo sapiens, UniProt P46736+Q15018+Q9NXR7, DEL184-208); test: Mass photometry of HsBRISCΔLoop dimer formation; settings: for Dimer fraction: HsBRISCΔLoop
[10] = FX-171-C 0.0035 μM, read-out: Normalised V0
[11] = FX-171-C 0.035 μM, read-out: Normalised V0
[12] = FX-171-C 12.5 μM, read-out: Normalised V0
[13] = FX-171-C 50 μM, read-out: Normalised V0
[14] = FX-171-C 100 μM, read-out: Normalised V0
[15] = FX-171-C 0.35 μM, read-out: Normalised V0
[16] = FX-171-C 3.1 μM, read-out: Normalised V0

- Normalised V0 ([1]; FX-171-C 0.02 μM): 1.3 and 1.008 and 1.02
- Normalised V0 ([1]; FX-171-C 0.0399999 μM): 1.022 and 1.101 and 0.829
- Normalised V0 ([1]; FX-171-C 0.0599997 μM): 1.02 and 1.119 and 0.8587
- Normalised V0 ([1]; FX-171-C 0.0799994 μM): 1.3 and 1.0735 and 0.9036
- Normalised V0 ([1]; FX-171-C 0.119998 μM): 1.089 and 1.054 and 0.9805
- Normalised V0 ([1]; FX-171-C 0.199996 μM): 1.086 and 0.9378 and 0.7276
- Normalised V0 ([1]; FX-171-C 0.499975 μM): 1.276 and 0.8855 and 0.9134
- Normalised V0 ([1]; FX-171-C 0.799936 μM): 1.016 and 0.9326 and 0.9281
- Normalised V0 ([1]; FX-171-C 1.25984 μM): 1.192 and 1.006 and 0.8037
- Normalised V0 ([1]; FX-171-C 1.9996 μM): 1.057 and 0.8883 and 0.8901
- Normalised V0 ([1]; FX-171-C 3.159 μM): 1.054 and 1.032 and 0.8522
- Normalised V0 ([1]; FX-171-C 5.19739 μM): 1.053 and 0.9454 and 1.03
- Normalised V0 ([1]; FX-171-C 7.99364 μM): 1.141 and 1 and 1.012
- Normalised V0 ([1]; FX-171-C 12.7839 μM): 1.078 and 0.9313 and 0.7823
- Normalised V0 ([1]; FX-171-C 19.96 μM): 1.034 and 1.063 and 0.8934
- Normalised V0 ([1]; FX-171-C 31.4999 μM): 1.1494 and 0.9768 and 0.8462
- Normalised V0 ([1]; FX-171-C 50.147 μM): 1.218 and 1.114 and 0.9054
- Normalised V0 ([1]; FX-171-C 79.7601 μM): 1.112 and 1.275 and 1.169
- Normalised V0 ([1]; FX-171-C 125.99 μM): 1.275 and 1.029 and 0.9009
- Normalised V0 ([1]; FX-171-C 199.922 μM): 1.127 and 0.8107 and 0.6392
- inhibition of BRCC36–Abraxas 2 complex ([1]; minimally active complex): did not inhibit
- remaining activity at 0.013 µM ([2]; HsBRISCΔLoop, FX-171-C 0.013 μM, read-out: Normalised V0): 87.6%
- remaining activity at 0.02 µM ([2]; HsBRISCΔLoop, FX-171-C 0.02 μM, read-out: Normalised V0): 103%
- remaining activity at 0.0399999 µM ([2]; HsBRISCΔLoop, FX-171-C 0.0399999 μM, read-out: Normalised V0): 90.4%
- remaining activity at 0.0599997 µM ([2]; HsBRISCΔLoop, FX-171-C 0.0599997 μM, read-out: Normalised V0): 102%
- remaining activity at 0.0799994 µM ([2]; HsBRISCΔLoop, FX-171-C 0.0799994 μM, read-out: Normalised V0): 93.6%
- remaining activity at 0.119998 µM ([2]; HsBRISCΔLoop, FX-171-C 0.119998 μM, read-out: Normalised V0): 102%
- remaining activity at 0.199996 µM ([2]; HsBRISCΔLoop, FX-171-C 0.199996 μM, read-out: Normalised V0): 84.1%
- remaining activity at 0.499975 µM ([2]; HsBRISCΔLoop, FX-171-C 0.499975 μM, read-out: Normalised V0): 99%
- remaining activity at 0.799937 µM ([2]; HsBRISCΔLoop, FX-171-C 0.799937 μM, read-out: Normalised V0): 98.4%
- remaining activity at 1.25984 µM ([2]; HsBRISCΔLoop, FX-171-C 1.25984 μM, read-out: Normalised V0): 86.2%
- remaining activity at 1.9996 µM ([2]; HsBRISCΔLoop, FX-171-C 1.9996 μM, read-out: Normalised V0): 93.3%
- remaining activity at 3.159 µM ([2]; HsBRISCΔLoop, FX-171-C 3.159 μM, read-out: Normalised V0): 82%
- remaining activity at 5.19739 µM ([2]; HsBRISCΔLoop, FX-171-C 5.19739 μM, read-out: Normalised V0): 89%
- remaining activity at 7.99364 µM ([2]; HsBRISCΔLoop, FX-171-C 7.99364 μM, read-out: Normalised V0): 69.7%
- remaining activity at 12.7839 µM ([2]; HsBRISCΔLoop, FX-171-C 12.7839 μM, read-out: Normalised V0): 65.1%
- remaining activity at 19.96 µM ([2]; HsBRISCΔLoop, FX-171-C 19.96 μM, read-out: Normalised V0): 50.7%
- remaining activity at 31.4999 µM ([2]; HsBRISCΔLoop, FX-171-C 31.4999 μM, read-out: Normalised V0): 45.4%
- remaining activity at 50.147 µM ([2]; HsBRISCΔLoop, FX-171-C 50.147 μM, read-out: Normalised V0): 24.3%
- remaining activity at 79.7601 µM ([2]; HsBRISCΔLoop, FX-171-C 79.7601 μM, read-out: Normalised V0): 18.2%
- pIC50 [3]: 4.64
- remaining activity at 0.0035 µM [3, 10]: 95.2%
- remaining activity at 0.035 µM [3, 11]: 96.5%
- remaining activity at 12.5 µM [3, 12]: 67.5%
- remaining activity at 50 µM [3, 13]: 40.4%
- remaining activity at 100 µM [3, 14]: 21%
- pIC50 [4]: 5.85
- inhibitor sensitivity vs BRISC WT [4]: remained inhibitor sensitive
- remaining activity at 0.035 µM [4, 11]: 98.5%
- remaining activity at 0.35 µM [4, 15]: 78.4%
- remaining activity at 3.1 µM [4, 16]: 25.5%
- remaining activity at 6.25 µM ([4]; FX-171-C 6.25 μM, read-out: Normalised V0): 20.8%
- remaining activity at 12.5 µM [4, 12]: 15%
- remaining activity at 100 µM [4, 14]: 4.9%
- pIC50 [5]: 4.12
- reduction of inhibition over wild-type complex [5]: > 100 fold
- remaining activity at 0.0035 µM [5, 10]: 98.8%
- remaining activity at 0.035 µM [5, 11]: 96.8%
- remaining activity at 0.35 µM [5, 15]: 93.7%
- remaining activity at 3.1 µM [5, 16]: 89.5%
- remaining activity at 25 µM ([5]; FX-171-C 25 μM, read-out: Normalised V0): 88%
- pIC50 [6]: 4.48
- reduction of inhibition over wild-type complex [6]: > 100 fold
- remaining activity at 0.035 µM [6, 11]: 94.7%
- remaining activity at 3.1 µM [6, 16]: 98.4%
- remaining activity at 50 µM [6, 13]: 40.6%
- remaining activity at 100 µM [6, 14]: 22.1%
- remaining activity at 200 µM ([6]; FX-171-C 200 μM, read-out: Normalised V0): 10.5%
- pIC50 [7]: 5.64
- pIC50 [8]: 4.28
- remaining activity at 0.035 µM [8, 11]: 79.9%
- Dimer fraction ([9]; [FX-171-C (μM)] 20): 0
- Dimer fraction ([9]; [FX-171-C (μM)] 40): 0
- Dimer fraction ([9]; [FX-171-C (μM)] 80): 0
- Dimer fraction ([9]; [FX-171-C (μM)] 156): 0
- Dimer fraction ([9]; [FX-171-C (μM)] 312.5): 0
- Dimer fraction ([9]; [FX-171-C (μM)] 2500): 0.11 and 0.07
- Dimer fraction ([9]; [FX-171-C (μM)] 5000): 0.16 and 0.15 and 0.14
- Dimer fraction ([9]; [FX-171-C (μM)] 10000): 0.23 and 0.22 and 0.14
- dimer formation of human BRISCΔLoop on inhibitor addition ([9]; mass photometry and negative-stain EM): fewer dimers
SMILES: O=C(NC1C2CNCC21)c1nn(C(=O)c2c(Cl)cccc2Cl)cc1NC(=O)c1c(Cl)cccc1Cl (stereo not shown) [FX-171-C]
- change of inhibitor sensitivity on deletion of BRCC36 loop (184–208) ([2]; vs human BRISC): reduced inhibitor sensitivity approximately tenfold
- inhibitor sensitivity vs BRISC WT [7]: moderate to little effect on inhibitor sensitivity
